Among the data in patent publication US9856220B2 (AbbVie Deutschland GmbH & Co. KG, priority 2011, dated 2018) are IC50 values, retold here.

Where only a bound is given, the exact number is not on record here.

Chain of PDE10A (Q9Y233 whole entry, species assumed): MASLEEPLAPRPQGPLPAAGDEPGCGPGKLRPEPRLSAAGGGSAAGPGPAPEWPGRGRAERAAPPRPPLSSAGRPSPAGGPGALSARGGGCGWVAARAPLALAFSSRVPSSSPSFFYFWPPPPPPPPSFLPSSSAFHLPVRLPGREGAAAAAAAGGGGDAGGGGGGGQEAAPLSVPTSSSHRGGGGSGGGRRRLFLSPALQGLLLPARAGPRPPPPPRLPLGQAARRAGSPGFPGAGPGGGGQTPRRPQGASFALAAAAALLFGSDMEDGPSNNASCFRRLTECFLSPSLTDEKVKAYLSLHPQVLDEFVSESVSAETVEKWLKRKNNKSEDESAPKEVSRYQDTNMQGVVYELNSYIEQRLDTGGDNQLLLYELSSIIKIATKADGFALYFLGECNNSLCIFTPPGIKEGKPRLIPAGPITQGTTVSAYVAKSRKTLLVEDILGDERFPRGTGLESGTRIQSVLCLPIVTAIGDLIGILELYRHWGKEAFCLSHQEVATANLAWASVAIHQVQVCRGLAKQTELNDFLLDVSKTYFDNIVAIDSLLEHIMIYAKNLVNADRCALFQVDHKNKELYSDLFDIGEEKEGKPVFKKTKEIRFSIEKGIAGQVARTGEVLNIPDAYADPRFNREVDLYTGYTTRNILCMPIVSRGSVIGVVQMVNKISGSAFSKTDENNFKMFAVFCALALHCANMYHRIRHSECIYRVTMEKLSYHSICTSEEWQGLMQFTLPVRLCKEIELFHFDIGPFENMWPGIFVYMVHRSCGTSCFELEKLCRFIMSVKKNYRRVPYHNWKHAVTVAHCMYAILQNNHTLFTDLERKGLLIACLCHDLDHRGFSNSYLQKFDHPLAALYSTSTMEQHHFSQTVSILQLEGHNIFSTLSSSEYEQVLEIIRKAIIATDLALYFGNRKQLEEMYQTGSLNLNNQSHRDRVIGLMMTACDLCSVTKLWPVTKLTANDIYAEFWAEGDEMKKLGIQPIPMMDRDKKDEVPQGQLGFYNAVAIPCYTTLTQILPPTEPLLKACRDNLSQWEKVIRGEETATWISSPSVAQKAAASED

The assay addresses PDE10A (Homo sapiens (Human), UniProt Q9Y233). The experiment in a line: Measurement of PDE activity (recombinant PDE, cAMP HTRF). The conditions noted are these: 20 nM cyclic nucleotide substrate, 60 minutes at 29 C. The assay is classed as biochemical. How it is done:
a) Measurement of PDE Activity
The recombinant PDE proteins are used in in vitro enzymatic reaction for measurement of PDE activity. These recombinant proteins, including PDE10A (human, rat and mouse PDE10) and isoforms of PDEs 1, 3, 4, and 5, were purchased from commercial vendor BPS Bioscience. The enzymatic activity of PDEs was determined by cAMP measurement kit from CisBio (IBA) using HTRF technology.
The PDE enzymatic reaction was carried out in assay buffer (20 mM Tris-HCl pH7.5, 10 mM MgCl2, 0.1% bovine serum albumin) containing enzyme and substrate. […] The substrate cyclic nucleotide (cAMP or cGMP) concentration used in the assay was 20 nM for PDE10, and 100 nM for other PDEs. The inhibitory effect of compound was determined by incubating various concentration of inhibitor in the enzymatic assay. […] Next, the compound at varying concentration was mixed with PDE enzyme. The reaction was initiated by addition of cyclic nucleotide substrate, and incubated for 60 minutes at 29 C. The reaction was stopped by addition of lysis buffer from assay kit. The cAMP-d2 and anti-cAMP cryptate in the lysis buffer detected the level of cAMP left from the PDE hydrolysis reaction. […] Thus, IC50 value of inhibitor can be obtained by plotting inhibitor concentration against PDE activity at that concentration.
Take `CCn1cc(C(=O)NC2CCc3cc(C)ccc32)c2cc(OC)c(OC)cc2c1=O` (stereo not drawn) [Example 175, 2-Ethyl-6,7-dimethoxy-N-(5-methyl-2,3-dihydro-1H-inden-1-yl)-1-oxo-1,2-dihydroisoquinoline-4-carboxamide]: the half-inhibitory concentration (IC50) was in the range of 200 to 500 nM.

For the molecule `CCC(CC)n1cc(C(=O)NC2CCc3c(C)cccc32)c2cc(OC)c(OC)cc2c1=O` (stereo not drawn) [Example 254, 6,7-Dimethoxy-N-(4-methyl-2,3-dihydro-1H-inden-1-yl)-1-oxo-2-(pentan-3-yl)-1,2-dihydroisoquinoline-4-carboxamide], the IC50 is < 100 nM.

Take `CCC(CC)n1cc(C(=O)NCc2cc(C)sc2C)c2cc(OC)c(OC)cc2c1=O` [Example 242, N-((2,5-dimethylthiophen-3-yl)methyl)-6,7-dimethoxy-1-oxo-2-(pentan-3-yl)-1,2-dihydroisoquinoline-4-carboxamide]: the IC50 fell in the range of 200 to 500 nM.

For `CCn1cc(C(=O)NCc2ccccc2F)c2cc(OC)c(OC)cc2c1=O` [Example 30, 2-Ethyl-6,7-dimethoxy-1-oxo-1,2-dihydro-isoquinoline-4-carboxylic acid 2-fluoro-benzylamide], the IC50 lay within 200 to 500 nM.

As for `CCn1cc(C(=O)NCc2cccc(F)c2)c2cc(OC)c(OC)cc2c1=O` [Example 31, 2-Ethyl-6,7-dimethoxy-1-oxo-1,2-dihydro-isoquinoline-4-carboxylic acid 3-fluoro-benzylamide], the IC50 was in the range of 200 to 500 nM.

Consider `CCn1cc(C(=O)NCc2ccc(C)cc2OCCOC)c2cc(OC)c(OC)cc2c1=O` [Example 293, 2-Ethyl-6,7-dimethoxy-N-[[2-(2-methoxyethoxy)-4-methyl-phenyl]methyl]-1-oxo-isoquinoline-4-carboxamide], for which the IC50 lay in the range of 200 to 500 nM.

With `CCC(CC)n1cc(C(=O)NC2COc3ccccc32)c2cc(OC)c(OC)cc2c1=O` (stereo not drawn) [Example 194, 2-(1-Ethyl-propyl)-6,7-dimethoxy-1-oxo-1,2-dihydro-isoquinoline-4-carboxylic acid (2,3-dihydro-benzofuran-3-yl)-amide], the IC50 was < 100 nM.

As for `CCC(CC)n1cc(C(=O)NC2CSc3ccccc32)c2cc(OC)c(OC)cc2c1=O` (stereo not drawn) [Example 216, 2-(1-Ethyl-propyl)-6,7-dimethoxy-1-oxo-1,2-dihydro-isoquinoline-4-carboxylic acid (2,3-dihydro-benzo[b]thiophen-3-yl)-amide], the IC50 is < 100 nM.

Take `CCn1cc(C(=O)NCc2ccc(C)cc2OC(C)C)c2cc(OC)c(OC)cc2c1=O` [Example 302, 2-Ethyl-N-(2-isopropoxy-4-methylbenzyl)-6,7-dimethoxy-1-oxo-1,2-dihydroisoquinoline-4-carboxamide]: the IC50 fell in the range of 200 to 500 nM.

With `CCn1cc(C(=O)NC2CCc3ccc(C)cc32)c2cc(OC)c(OC)cc2c1=O` (stereo not drawn) [Example 167, 2-Ethyl-6,7-dimethoxy-N-(6-methyl-2,3-dihydro-1H-inden-1-yl)-1-oxo-1,2-dihydroisoquinoline-4-carboxamide], the IC50 lay within 200 to 500 nM.

With `CCC(C)Oc1cc(C)ccc1CNC(=O)c1cn(CC)c(=O)c2cc(OC)c(OC)cc12` (stereo not drawn) [Example 298, N-(2-sec-Butoxy-4-methylbenzyl)-2-ethyl-6,7-dimethoxy-1-oxo-1,2-dihydroisoquinoline-4-carboxamide], the concentration for half-maximal inhibition (IC50) was in the range of 200 to 500 nM.

On to `CCn1cc(C(=O)NCc2c(F)cccc2F)c2cc(OC)c(OC)cc2c1=O` [Example 35, 2-Ethyl-6,7-dimethoxy-1-oxo-1,2-dihydro-isoquinoline-4-carboxylic acid 2,6-difluoro-benzylamide], for which the IC50 lay in the range of 200 to 500 nM.

As for `CCn1cc(C(=O)NCc2ccc(C)cc2OCC2CC2)c2cc(OC)c(OC)cc2c1=O` [Example 290, N-[[2-(Cyclopropylmethoxy)-4-methyl-phenyl]methyl]-2-ethyl-6,7-dimethoxy-1-oxo-isoquinoline-4-carboxamide], the IC50 fell in the range of 200 to 500 nM.

As for `CCc1ccc(CNC(=O)c2cn(C(CC)CC)c(=O)c3cc(OC)c(OC)cc23)s1` [Example 266, N-((5-Ethylthiophen-2-yl)methyl)-6,7-dimethoxy-1-oxo-2-(pentan-3-yl)-1,2-dihydroisoquinoline-4-carboxamide], the IC50 lay within 200 to 500 nM.

As to `CCC(CC)n1cc(C(=O)NCc2ncc(C)o2)c2cc(OC)c(OC)cc2c1=O` [Example 259, 6,7-Dimethoxy-N-((5-methyloxazol-2-yl)methyl)-1-oxo-2-(pentan-3-yl)-1,2-dihydroisoquinoline-4-carboxamide], the IC50 was in the range of 200 to 500 nM.

For the molecule `CCn1cc(C(=O)NCc2ccc(C)cc2OCC2CCCO2)c2cc(OC)c(OC)cc2c1=O` (stereo not drawn) [Example 305, 2-Ethyl-6,7-dimethoxy-N-(4-methyl-2-((tetrahydrofuran-2-yl)methoxy)benzyl)-1-oxo-1,2-dihydroisoquinoline-4-carboxamide], the IC50 fell in the range of 200 to 500 nM.

Turning to `CCn1cc(C(=O)NCC2CCCCC2)c2cc(OC)c(OC)cc2c1=O` [Example 28, 2-Ethyl-6,7-dimethoxy-1-oxo-1,2-dihydro-isoquinoline-4-carboxylic acid cyclohexylmethyl-amide], the IC50 lay in the range of 200 to 500 nM.

Take `CCC(C)CNC(=O)c1cn(CC)c(=O)c2cc(OC)c(OC)cc12` (stereo not drawn) [Example 20, 2-Ethyl-6,7-dimethoxy-1-oxo-1,2-dihydro-isoquinoline-4-carboxylic acid (2-methyl-butyl)-amide]: the IC50 fell in the range of 200 to 500 nM.

As for `CCC(CC)n1cc(C(=O)NCc2ccc(C)cc2)c2cc(OC)c(OC)cc2c1=O` [Example 262, 6,7-Dimethoxy-N-(4-methylbenzyl)-1-oxo-2-(pentan-3-yl)-1,2-dihydroisoquinoline-4-carboxamide], the IC50 fell in the range of 100 to 200 nM.

Regarding `CCC(CC)n1cc(C(=O)NCc2cc(F)cc(F)c2)c2cc(OC)c(OC)cc2c1=O` [Example 188, 2-(1-Ethyl-propyl)-6,7-dimethoxy-1-oxo-1,2-dihydro-isoquinoline-4-carboxylic acid 3,5-difluoro-benzylamide], the IC50 lay in the range of 100 to 200 nM.

Regarding `CCC(CC)n1cc(C(=O)NC2CCc3c(Cl)cccc32)c2cc(OC)c(OC)cc2c1=O` (stereo not drawn) [Example 265, N-(4-Chloro-2,3-dihydro-1H-inden-1-yl)-6,7-dimethoxy-1-oxo-2-(pentan-3-yl)-1,2-dihydroisoquinoline-4-carboxamide], the IC50 lay in the range of 200 to 500 nM.

Take `CCC(CC)n1cc(C(=O)N[C@@H]2CCc3ccccc32)c2cc(OC)c(OC)cc2c1=O` [Example 191, 2-(1-Ethyl-propyl)-6,7-dimethoxy-1-oxo-1,2-dihydro-isoquinoline-4-carboxylic acid (R)-indan-1-ylamide]: the concentration for half-maximal inhibition (IC50) is 200 to 500 nM.

On to `CCn1cc(C(=O)NCc2ccc(C)cc2OC2CCOC2)c2cc(OC)c(OC)cc2c1=O` (stereo not drawn) [Example 303, 2-Ethyl-6,7-dimethoxy-N-(4-methyl-2-(tetrahydrofuran-3-yloxy)benzyl)-1-oxo-1,2-dihydroisoquinoline-4-carboxamide], for which the IC50 lay in the range of 200 to 500 nM.

As to `CCCCCNC(=O)c1cn(CC)c(=O)c2cc(OC)c(OC)cc12` [Example 21, 2-Ethyl-6,7-dimethoxy-1-oxo-1,2-dihydro-isoquinoline-4-carboxylic acid pentylamide], the IC50 is 200 to 500 nM.

As to `CCn1cc(C(=O)NCc2ccc(C)cc2OC)c2cc(OC)c(OC)cc2c1=O` [Example 308, 2-Ethyl-6,7-dimethoxy-N-(2-methoxy-4-methylbenzyl)-1-oxo-1,2-dihydroisoquinoline-4-carboxamide], the IC50 lay in the range of 200 to 500 nM.

Regarding `CCn1cc(C(=O)NCc2ccc(OC)cc2)c2cc(OC)c(OC)cc2c1=O` [Example 152, 2-Ethyl-6,7-dimethoxy-N-(4-methoxybenzyl)-1-oxo-1,2-dihydroisoquinoline-4-carboxamide], the IC50 is 200 to 500 nM.

On to `CCn1cc(C(=O)NCc2cccc(C)c2)c2cc(OC)c(OC)cc2c1=O` [Example 153], for which the IC50 was in the range of 100 to 200 nM.

As to `CCn1cc(C(=O)NCc2ccc(F)c(F)c2)c2cc(OC)c(OC)cc2c1=O` [Example 36, 2-Ethyl-6,7-dimethoxy-1-oxo-1,2-dihydro-isoquinoline-4-carboxylic acid 3,4-difluoro-benzylamide], the half-maximal inhibitory concentration (IC50) lay within 100 to 200 nM.

Regarding `CCCCNC(=O)c1cn(CCc2ccc3ccccc3n2)c(=O)c2cc(OC)ccc12` [Example 182, 7-Methoxy-1-oxo-2-(2-quinolin-2-yl-ethyl)-1,2-dihydro-isoquinoline-4-carboxylic acid butylamide], the IC50 was 100 to 200 nM.

Consider `CCn1cc(C(=O)NCc2ccccc2Cl)c2cc(OC)c(OC)cc2c1=O` [Example 162, N-(2-Chlorobenzyl)-2-ethyl-6,7-dimethoxy-1-oxo-1,2-dihydroisoquinoline-4-carboxamide], for which the IC50 was in the range of 200 to 500 nM.

For `CCn1cc(C(=O)NCc2ccc(F)cc2F)c2cc(OC)c(OC)cc2c1=O` [Example 34, 2-Ethyl-6,7-dimethoxy-1-oxo-1,2-dihydro-isoquinoline-4-carboxylic acid 2,4-difluoro-benzylamide], the IC50 fell in the range of 200 to 500 nM.

Regarding `CCC(CC)n1cc(C(=O)NC2CCc3ccc(C)cc32)c2cc(OC)c(OC)cc2c1=O` (stereo not drawn) [Example 260, 6,7-Dimethoxy-N-(6-methyl-2,3-dihydro-1H-inden-1-yl)-1-oxo-2-(pentan-3-yl)-1,2-dihydroisoquinoline-4-carboxamide], the IC50 lay within 100 to 200 nM.

For `CCCCNC(=O)c1cn(CC)c(=O)c2cc(OC)c(OC)cc12` [Example 1, 2-Ethyl-6,7-dimethoxy-1-oxo-1,2-dihydro-isoquinoline-4-carboxylic acid butylamide], the IC50 fell in the range of 100 to 200 nM.
